The values that follow come from US20100034839A1, “METHODS FOR TREATING VIRAL DISORDERS” (priority 2008, published 2010).

The subject of assay [1] is CLIP^+ B cells in human PBMC. The assay can be described thus: Peptide replacement of CLIP on R848-activated human PBMC B cells. The assay is classed as cell-based. To be noted: PBMC of two donors cultured with R848 for 48 hours with peptide. The procedure:
FIG. 13 depicts TLR activation results in ectopic CLIP expression on human B cells from peripheral blood mononuclear cells (PBMC) cultures. FIG. 13a: human PBMC from five donors were cultured for 24 hours with toll ligands (CpG-ODN, LPS, Pam3Cys, and Poly I:C) and were stained with a pan anti-HLA-DR-FITC antibody (values of isotype controls were subtracted from the specific stains, ΔMFI). FIG. 13b: cells were stained using anti-human CLIP-FITC versus CD19-PE (values of isotype controls were subtracted from the specific stains, ΔMFI). For FIGS. 13a & 13b: nil vs. CpG p=0.06821; nil vs. LPS p=0.0390; nil vs. PAM p=0.0124. FIG. 13c: cells were stained for CLIP-FITC versus CD19-PE as described for FIG. 13b. The data represent the percent of total PBMC that are CLIP+ B cells subsequent to treatment. For FIG. 13c: nil vs. CpG p=0.0058; nil vs. LPS p=0.0254. […]
PBMC were prepared from a total of seven adult normal donors, five for examining the effects of TLR binding on the percentage of ectopic CLIP^+ B cells and changes in mean fluorescence intensity of the CLIP staining resulting from TLR stimulation with CpG-ODN, LPS, Pam-3-Cys, and Poly I:C. […] Cells were analyzed using either a BD FacsCalibur, for the five samples, or a Coulter FC500 for the two tissue typed samples. […]

Assay [2] relates to cell surface CLIP on Raji and Daudi cells. The assay can be described thus: Competition of synthetic peptides with cell surface CLIP (Fitc anti-human CLIP). The assay is classed as cell-based. Particulars: biotinylated competing peptide. The text has this:
Based on a computational model comparing the peptide content of TNP mixture and identifying those peptides that would have the likeliest ability to compete for the peptide/antigen binding site for MHC class II (human HLA-DR, DP, and DQ), several peptide candidates were synthesized and examined for activity. The purpose of the study was to determine if synthetic peptides can compete for binding with CLIP peptides as measured with either Fitc anti-human CLIP antibody or, comparatively in the case of biotinylated peptides, with Streptavidin.
Cell Culture Conditions: The Raji and Daudi cell lines were purchased from American Type Culture Collection, were thawed, and grown in RPMI 1640 medium supplemented with standard supplements, including 10% fetal calf serum, gentamycin, penicillin, streptomycin, sodium pyruvate, HEPES buffer, 1-glutamine, and 2-ME.
Protocol: Cells were plated into a 12 well plate with 3 mls total volume containing approximately 1.5×10^6/well for Daudi cells and 3.0×10^6/well for Raji cells. Treatment groups included no treatment as control; MKN 3 and MKN 5 at 50 microMolar final concentration based on the reported molarity of the synthesized compounds.
The cells were incubated at 37° C. in an atmosphere containing 5% CO2 and approximately 92% humidity. The cells were incubated for 4 and 24 hours. At each time point, the cells from that experimental time were harvested and stained for flow cytometric analysis of cell surface expression of CLIP (MHC Class II invariant peptide, human) by using the commercially available (Becton/Dickinson/PHarmingen) anti-human CLIP Fitc. Catalogue #555981 versus Streptavidin.
Harvested cells were stained using standard staining procedure that called for a 1:100 dilution of Fitc-anti-human CLIP or isotype control versus 1:200 dilution of the commercially prepared Streptavidin. Following staining on ice for 25 minutes, cells were washed with PBS/FCS and resuspended in 100 microliters and added to staining tubes containing 400 microliters of PBS. Samples were acquired and analyzed on a Coulter Excel Flow Cytometer.
In the Histogram analyses of FIGS. 5-7 the Y axis represents cell number of the 5000 live cells versus the X axis which is a reflection of relative Fitc fluorescence versus Streptavidin-PE (eBioscience, Cat. #12-4317) that will bind with high affinity to cell-bound biotinylated peptides. The distance between the histogram from the isotype control staining versus the histogram reflecting the specific stain and is a measure of level of cell surface CLIP or the biotinylated peptide when stained with Streptavidin on a population of live Raji or Daudi cells as indicated.

Regarding FRIMAVLAS, in assay [1], the “percentage of CLIP^+ B cells and level of CLIP per B cell” value was “reduced the percentage of CLIP^+ B cells and the level of CLIP per B cell to pre-treatment levels”. In addition, the “cell surface bound CLIP” value in assay [2] (4 hours) is reported as “small decreases in cell surface bound CLIP”; in assay [2] (24 hours), “significant decreases”.
